Results reported in US6596508B2, “CRE-inducible expression system” (National Research Council of Canada, priority 1999, dated 2003).

Experiments:
[1] = target: prostanoid EP2 receptor; assay: Transient expression and activation of the EP2 receptor in the HEK293-pCRE5/SEAP transfectoma (SEAP reporter); type: cell-based; settings: transiently transfected EP2 receptor, PGE2 challenge for 6 hours, SEAP readout; read-out: estimated EC50
Method: Twenty four hours after transfection with a plasmid containing the prostanoid EP2 receptor (closed symbol) or the empty vector (open symbol), the HEK293-pCRE5/SEAP transfectoma was challenged with PGE2 for 6 hours (FIG. 4). The estimated EC50 was below 1 nM of PGE2.

[2] = target: T1, prostanoid EP2 receptor (Homo sapiens, UniProt P43116); assay: HEK293-pCRE5/SEAP transfectoma stably transfected with EP2 receptor, response to PGE2 with or without IBMX; type: cell-based; settings: stable EP2 transfectant, 100 μM IBMX vs absence, 6 h
T1 construct: expressed in transfected cells
Method: A HEK293-pCRE5/SEAP transfectoma was stably transfected with the prostanoid EP2 receptor and challenged with PGE2 in the absence (empty circles) or presence (closed circles) of 100 μM IBMX for 6 h and SEAP activity determined (FIG. 5). In this case, EC50 was shifted 10-fold to the left.

[3] = tested on: HEK293-pCRE5/SEAP transfectoma; assay: Forskolin-induced SEAP production in stable HEK293-pCRE5/SEAP transfectoma, 50 h; type: cell-based, human
Method: Upper Panel A: Stable HEK293-pCRE5/SEAP transfectoma was stimulated with 20 μM forskolin with or without 100 μM IBMX or 200 μM theophylline for 50 h and SEAP activity was then measured on an aliquot of the supernatant (FIG. 7).

T1 sequence (P43116 whole entry, species assumed): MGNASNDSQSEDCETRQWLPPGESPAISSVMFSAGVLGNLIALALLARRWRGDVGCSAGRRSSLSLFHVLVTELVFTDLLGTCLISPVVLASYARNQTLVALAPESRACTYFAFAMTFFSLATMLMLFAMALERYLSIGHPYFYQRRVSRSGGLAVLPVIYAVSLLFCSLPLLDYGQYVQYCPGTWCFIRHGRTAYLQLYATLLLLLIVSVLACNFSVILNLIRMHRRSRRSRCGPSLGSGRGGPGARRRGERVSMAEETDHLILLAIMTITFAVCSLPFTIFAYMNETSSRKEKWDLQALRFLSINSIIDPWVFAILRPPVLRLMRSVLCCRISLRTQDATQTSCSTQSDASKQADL

Row | EC50 [1] | EC50 shift to the left in presence of IBMX [2] | Compound | fold-induction of SEAP activity (Panel B, independent experiment) ([3]; 20 μM forskolin with or without 100 μM IBMX) | fold-induction of SEAP activity (Panel A) ([3]; 20 μM forskolin with or without 100 μM IBMX or 200 μM theophylline)
1 | < 1 nM | 10 fold | CCCCC[C@H](O)/C=C/[C@H]1[C@H](O)CC(=O)[C@@H]1C/C=C\CCCC(=O)O [PGE2] |  | 
2 |  |  | C=C[C@@]1(C)CC(=O)[C@]2(O)[C@@]3(C)[C@@H](O)CCC(C)(C)[C@@H]3[C@H](O)[C@H](OC(C)=O)[C@@]2(C)O1 [forskolin] | 198 fold | 128 fold
